Reference: ChEMBL document CHEMBL5724914, “Linking interpersonal differences in gut microbiota composition and drug biotransformation activity” (2024)

Conditions: human gut metagenome, 24 h, 2 µM
Note: call rule not given here.

Structure (SMILES) | Bacterial Biotransformation
OCCN1CCN(CCCN2c3ccccc3Sc3ccc(C(F)(F)F)cc32)CC1 [FLUPHENAZINE] | Compound metabolized
CCCCc1nc(Cl)c(CO)n1Cc1ccc(-c2ccccc2-c2nn[nH]n2)cc1 [LOSARTAN] | Compound metabolized

Test: (§1) The drug is tested on Z-004 corresponding to metagenome with ENA study accession number: PRJEB37062 and ENA sample accession number: ERS12561804 for biotransformation under anaerobic condition. The drug concentrations were measured over 9 timepoints collected between 0 and 24 hours of incubation by liquid-chromatography-coupled mass spectrometry (LC–MS)
Conditions: 2 µM

Structure (SMILES) | Bacterial Biotransformation
OCCN1CCN(CCCN2c3ccccc3Sc3ccc(C(F)(F)F)cc32)CC1 [FLUPHENAZINE] | Compound metabolized
CCCCc1nc(Cl)c(CO)n1Cc1ccc(-c2ccccc2-c2nn[nH]n2)cc1 [LOSARTAN] | Compound NOT metabolized

Test: (§2) The drug is tested on WLS-170 corresponding to human gut metagenome with ENA study accession number: PRJEB37062 and ENA sample accession number: ERS12561762 for biotransformation under anaerobic condition. The drug concentrations were measured over 9 timepoints collected between 0 and 24 hours of incubation by liquid-chromatography-coupled mass spectrometry (LC–MS)
Conditions: 2 µM

Structure (SMILES) | Bacterial Biotransformation
OCCN1CCN(CCCN2c3ccccc3Sc3ccc(C(F)(F)F)cc32)CC1 [FLUPHENAZINE] | Compound metabolized
CCCCc1nc(Cl)c(CO)n1Cc1ccc(-c2ccccc2-c2nn[nH]n2)cc1 [LOSARTAN] | Compound metabolized

Conditions: human gut metagenome, 24 h, 2 µM
Remark: another data set of the same source

Structure (SMILES) | Bacterial Biotransformation
OCCN1CCN(CCCN2c3ccccc3Sc3ccc(C(F)(F)F)cc32)CC1 [FLUPHENAZINE] | Compound metabolized
CCCCc1nc(Cl)c(CO)n1Cc1ccc(-c2ccccc2-c2nn[nH]n2)cc1 [LOSARTAN] | Compound metabolized

Conditions: human gut metagenome, 24 h, 2 µM
Remark: another data set of the same source

Structure (SMILES) | Bacterial Biotransformation
OCCN1CCN(CCCN2c3ccccc3Sc3ccc(C(F)(F)F)cc32)CC1 [FLUPHENAZINE] | Compound metabolized
CCCCc1nc(Cl)c(CO)n1Cc1ccc(-c2ccccc2-c2nn[nH]n2)cc1 [LOSARTAN] | Compound metabolized

Conditions: human gut metagenome, 24 h, 2 µM
Remark: another data set of the same source

Structure (SMILES) | Bacterial Biotransformation
OCCN1CCN(CCCN2c3ccccc3Sc3ccc(C(F)(F)F)cc32)CC1 [FLUPHENAZINE] | Compound metabolized
CCCCc1nc(Cl)c(CO)n1Cc1ccc(-c2ccccc2-c2nn[nH]n2)cc1 [LOSARTAN] | Compound metabolized

Test: as §1, with “Z-027” for “Z-004”, “ERS12561826” for “ERS12561804”
Conditions: 2 µM

Structure (SMILES) | Bacterial Biotransformation
OCCN1CCN(CCCN2c3ccccc3Sc3ccc(C(F)(F)F)cc32)CC1 [FLUPHENAZINE] | Compound NOT metabolized
CCCCc1nc(Cl)c(CO)n1Cc1ccc(-c2ccccc2-c2nn[nH]n2)cc1 [LOSARTAN] | Compound NOT metabolized

Conditions: human gut metagenome, 24 h, 2 µM
Remark: another data set of the same source

Structure (SMILES) | Bacterial Biotransformation
OCCN1CCN(CCCN2c3ccccc3Sc3ccc(C(F)(F)F)cc32)CC1 [FLUPHENAZINE] | Compound NOT metabolized
CCCCc1nc(Cl)c(CO)n1Cc1ccc(-c2ccccc2-c2nn[nH]n2)cc1 [LOSARTAN] | Compound metabolized

Test: as §2, with “WLS-090” for “WLS-170”, “ERS12561753” for “ERS12561762”
Conditions: 2 µM

Structure (SMILES) | Bacterial Biotransformation
OCCN1CCN(CCCN2c3ccccc3Sc3ccc(C(F)(F)F)cc32)CC1 [FLUPHENAZINE] | Compound metabolized
CCCCc1nc(Cl)c(CO)n1Cc1ccc(-c2ccccc2-c2nn[nH]n2)cc1 [LOSARTAN] | Compound metabolized

Test: as §2, with “Z-028” for “WLS-170”, “mouse” for “human”, “ERS12561827” for “ERS12561762”
Conditions: 2 µM

Structure (SMILES) | Bacterial Biotransformation
OCCN1CCN(CCCN2c3ccccc3Sc3ccc(C(F)(F)F)cc32)CC1 [FLUPHENAZINE] | Compound metabolized
CCCCc1nc(Cl)c(CO)n1Cc1ccc(-c2ccccc2-c2nn[nH]n2)cc1 [LOSARTAN] | Compound NOT metabolized

Test: as §2, with “Z-002” for “WLS-170”, “rabbit” for “human”, “ERS12561802” for “ERS12561762”
Conditions: 2 µM

Structure (SMILES) | Bacterial Biotransformation
OCCN1CCN(CCCN2c3ccccc3Sc3ccc(C(F)(F)F)cc32)CC1 [FLUPHENAZINE] | Compound metabolized
CCCCc1nc(Cl)c(CO)n1Cc1ccc(-c2ccccc2-c2nn[nH]n2)cc1 [LOSARTAN] | Compound NOT metabolized

Conditions: human gut metagenome, 24 h, 2 µM
Remark: another data set of the same source

Structure (SMILES) | Bacterial Biotransformation
OCCN1CCN(CCCN2c3ccccc3Sc3ccc(C(F)(F)F)cc32)CC1 [FLUPHENAZINE] | Compound metabolized
CCCCc1nc(Cl)c(CO)n1Cc1ccc(-c2ccccc2-c2nn[nH]n2)cc1 [LOSARTAN] | Compound metabolized

Test: as §2, with “Z-001” for “WLS-170”, “mouse” for “human”, “ERS12561801” for “ERS12561762”
Conditions: 2 µM

Structure (SMILES) | Bacterial Biotransformation
OCCN1CCN(CCCN2c3ccccc3Sc3ccc(C(F)(F)F)cc32)CC1 [FLUPHENAZINE] | Compound metabolized
CCCCc1nc(Cl)c(CO)n1Cc1ccc(-c2ccccc2-c2nn[nH]n2)cc1 [LOSARTAN] | Compound NOT metabolized

Test: as §2, with “Z-030” for “WLS-170”, “mouse” for “human”, “ERS12561829” for “ERS12561762”
Conditions: 2 µM

Structure (SMILES) | Bacterial Biotransformation
OCCN1CCN(CCCN2c3ccccc3Sc3ccc(C(F)(F)F)cc32)CC1 [FLUPHENAZINE] | Compound NOT metabolized
CCCCc1nc(Cl)c(CO)n1Cc1ccc(-c2ccccc2-c2nn[nH]n2)cc1 [LOSARTAN] | Compound NOT metabolized

Test: as §1, with “Z-026” for “Z-004”, “ERS12561825” for “ERS12561804”
Conditions: 2 µM

Structure (SMILES) | Bacterial Biotransformation
OCCN1CCN(CCCN2c3ccccc3Sc3ccc(C(F)(F)F)cc32)CC1 [FLUPHENAZINE] | Compound NOT metabolized
CCCCc1nc(Cl)c(CO)n1Cc1ccc(-c2ccccc2-c2nn[nH]n2)cc1 [LOSARTAN] | Compound NOT metabolized

Test: as §2, with “Z-020” for “WLS-170”, “rabbit” for “human”, “ERS12561819” for “ERS12561762”
Conditions: 2 µM

Structure (SMILES) | Bacterial Biotransformation
OCCN1CCN(CCCN2c3ccccc3Sc3ccc(C(F)(F)F)cc32)CC1 [FLUPHENAZINE] | Compound NOT metabolized
CCCCc1nc(Cl)c(CO)n1Cc1ccc(-c2ccccc2-c2nn[nH]n2)cc1 [LOSARTAN] | Compound NOT metabolized

Conditions: human gut metagenome, 24 h, 2 µM
Remark: another data set of the same source

Structure (SMILES) | Bacterial Biotransformation
OCCN1CCN(CCCN2c3ccccc3Sc3ccc(C(F)(F)F)cc32)CC1 [FLUPHENAZINE] | Compound metabolized
CCCCc1nc(Cl)c(CO)n1Cc1ccc(-c2ccccc2-c2nn[nH]n2)cc1 [LOSARTAN] | Compound metabolized

Test: as §1, with “Z-010” for “Z-004”, “ERS12561810” for “ERS12561804”
Conditions: 2 µM

Structure (SMILES) | Bacterial Biotransformation
OCCN1CCN(CCCN2c3ccccc3Sc3ccc(C(F)(F)F)cc32)CC1 [FLUPHENAZINE] | Compound metabolized
CCCCc1nc(Cl)c(CO)n1Cc1ccc(-c2ccccc2-c2nn[nH]n2)cc1 [LOSARTAN] | Compound NOT metabolized

Test: as §2, with “Z-024” for “WLS-170”, “pig” for “human”, “ERS12561823” for “ERS12561762”
Conditions: 2 µM

Structure (SMILES) | Bacterial Biotransformation
OCCN1CCN(CCCN2c3ccccc3Sc3ccc(C(F)(F)F)cc32)CC1 [FLUPHENAZINE] | Compound metabolized
CCCCc1nc(Cl)c(CO)n1Cc1ccc(-c2ccccc2-c2nn[nH]n2)cc1 [LOSARTAN] | Compound NOT metabolized

Test: as §2, with “WLS-370” for “WLS-170”, “ERS12561793” for “ERS12561762”
Conditions: 2 µM

Structure (SMILES) | Bacterial Biotransformation
OCCN1CCN(CCCN2c3ccccc3Sc3ccc(C(F)(F)F)cc32)CC1 [FLUPHENAZINE] | Compound metabolized
CCCCc1nc(Cl)c(CO)n1Cc1ccc(-c2ccccc2-c2nn[nH]n2)cc1 [LOSARTAN] | Compound metabolized
